The values that follow come from US5246989A, “Photochromic compound, composition and use thereof” (priority 1990, dated 1993).

This data set is described as follows: Photochromic characteristics of cast polymethyl methacrylate film (coloration under mercury lamp, fading). Format: physicochemical. The note with it: PMMA film, 1.0×10^-4 mol/g, 0.1 mm, 35° C.; for t1/2 (half-value period of absorbance after irradiation): after 60 seconds' irradiation; for λ max (maximum absorption wavelength of the colored film) / ε (60 seconds)-ε (0 second): mercury lamp 60 seconds; for ε (60 seconds)-ε (0 second): absorbance at λmax.

Structures are written as SMILES.

Description: The compound synthesized in Example 1, which was represented by the following formula: [drawing 286] was dissolved and dispersed in polymethyl methacrylate with the aid of benzene, and a cast film was prepared on a slide glass sheet (11.2 cm×3.7 cm) so that the concentration of the compound in the film was 1.0×10^-4 mol/g and the thickness of the film was 0.1 mm. The photochromic film was irradiated with rays of a mercury lamp (SHL-100 supplied by Toshiba) located 10 cm apart from the film at 35° C.+1° C. for 60 seconds to effect coloration in the film, and the photochromic characteristics were examined with respect to items described below.
Maximum absorption wavelength (λmax):
The maximum absorption wavelength λmax of the colored film was determined by using a spectrophotometer (220 A supplied by Hitachi).
After 60 seconds' irradiation under the above-mentioned conditions, the absorbance at the maximum absorption wavelength was measured.
The absorbance at the maximum absorption wavelength of the unirradiated film was measured. Half-value period t^1/2 :
After 60 seconds' irradiation, the time required for reduction of the absorbance of the film to 1/2 of [ε(60 seconds)-ε(0 second)] was measured.

Regarding `CCC1(CC)c2cc(C(F)(F)F)ccc2N(Cc2ccccc2)C12C=Nc1cc(Cc3ccccc3)c3c(C)cncc3c1O2` (centres unmarked) [Compound 30], the t1/2 (half-value period of absorbance after irradiation) is 18 s, the “λ max (maximum absorption wavelength of the colored film)” value (shortened to “λ max”) turned out to be 589 and the “ε (60 seconds)-ε (0 second)” value is given as 1.6.
For `CN1c2ccc([N+](=O)[O-])cc2C2(CCCCC2)C12C=Nc1ccc3ccccc3c1O2` (centres unmarked) [Compound 21], in that order: 18 s, 610 and 1.2.
Consider `Cc1cc2ccncc2c2c1N=CC1(O2)N(C(C)C)c2ccc(Cl)cc2C12CCCC2` (centres unmarked) [Compound 28], for which the t1/2 (half-value period of absorbance after irradiation) amounted to 14 s, the “λ max” value is listed as 595 and the “ε (60 seconds)-ε (0 second)” value is reported as 1.7.
For `COC(=O)c1ccc2c(c1)C(C)(C)C1(C=Nc3ccc4ncccc4c3O1)N2C` (centres unmarked) [Compound 52], in that order: 18 s, 611 and 1.5.
On to `CN1c2ccccc2C2(CCCCC2)C12C=Nc1cc(Cc3ccccc3)c3ccccc3c1O2` (centres unmarked) [Compound 25], for which the t1/2 (half-value period of absorbance after irradiation) was 18 s, the “λ max” value stood at 611 and the “ε (60 seconds)-ε (0 second)” value is 1.4.
On to `CN1c2c(F)cc(F)cc2C2(CCCCC2)C12C=Nc1ccc3cnccc3c1O2` (centres unmarked) [Compound 27], for which the t1/2 (half-value period of absorbance after irradiation) was found to be 15 s, the “λ max” value is on record as 613 and the “ε (60 seconds)-ε (0 second)” value is recorded as 1.7.
The matching figures for `Cc1cc2c(c3ccnc(C)c13)OC1(C=N2)N(C(C)C)c2cc(Br)ccc2C12CCCCCC2` (centres unmarked) [Compound 29]: 16 s, 602 and 1.6.
For `COC(=O)CCCCN1c2cc3[nH]ccc3cc2C2(CC3CCC2C3)C12C=Nc1cc(-c3ccccc3)c3ncccc3c1O2` (centres unmarked) [Compound 13], in that order: 18 s, 607 and 1.4.
For `COc1cc2c(c3ccccc13)OC1(C=N2)N(c2ccccc2)c2ccccc2C12CCCC2` (centres unmarked) [Compound 16], in that order: 17 s, 606 and 1.2.
For the compound `CCC1(C)c2cc(OC)ccc2N(Cc2ccccc2)C12C=Nc1cc(-c3ccccc3)c3c(OC)nccc3c1O2` (centres unmarked) [Compound 31], the t1/2 (half-value period of absorbance after irradiation) was determined as 17 s, the “λ max” value is reported as 619 and the “ε (60 seconds)-ε (0 second)” value is 1.7.
The matching figures for `CCCCN1c2cc(CC)ccc2C2(CC3CCC2C3)C12C=Nc1c(N)cc3occc3c1O2` (centres unmarked) [Compound 23]: 19 s, 605 and 1.2.
For `CN1c2ccc(Cl)cc2C2(C3CC4CC(C3)CC2C4)C12C=Nc1cc(N3CCCCC3)c3ncccc3c1O2` (centres unmarked) [Compound 9], in that order: 17 s, 605 and 1.2.
For `CN1c2c(F)cc(F)cc2C(C)(C)C12C=Nc1ccc3cnccc3c1O2` (centres unmarked) [Compound 54], in that order: 14 s, 609 and 1.5.
On to `CN1c2ccccc2C(C)(C)C12C=Nc1ccc3cnccc3c1O2` (centres unmarked) [Compound 53], for which the t1/2 (half-value period of absorbance after irradiation) came out at 16 s, the “λ max” value was 615 and the “ε (60 seconds)-ε (0 second)” value amounted to 1.7.
The matching figures for `CN1c2cc3ncc(-c4ccsc4)cc3cc2C2(C3CC4CC(C3)CC2C4)C12C=Nc1ccc3ccccc3c1O2` (centres unmarked) [Compound 15]: 16 s, 607 and 1.3.
The matching figures for `CN1c2occ(C#N)c2C(C)(C)C12C=Nc1cc(Cc3ccccc3)c3ncc(Br)cc3c1O2` (centres unmarked) [Compound 48]: 18 s, 610 and 1.4.
For `COC(=O)CN1c2cc(Cl)ccc2C2(C3CC4CC(C3)CC2C4)C12C=Nc1ccc3cc4ccc(Br)cc4cc3c1O2` (centres unmarked) [Compound 24], in that order: 18 s, 609 and 1.2.
With `CN1c2ccccc2C2(CCCCC2)C12C=Nc1ccc3cnccc3c1O2` (centres unmarked) [Compound 26], the t1/2 (half-value period of absorbance after irradiation) was 17 s, the “λ max” value is 619 and the “ε (60 seconds)-ε (0 second)” value stood at 1.8.
For `COC(=O)c1cc2c(c3cc[nH]c13)OC1(C=N2)N(C)c2[nH]ccc2C12CCCCC2` (centres unmarked) [Compound 20], in that order: 17 s, 603 and 1.4.
The matching figures for `CN(C)c1cc2c(c3ccccc13)OC1(C=N2)N(C)c2ccccc2C12CC1CCC2C1` (centres unmarked) [Compound 3]: 18 s, 603 and 1.3.
For `N#CCN1c2[nH]ccc2C2(CCCCCC2)C12C=Nc1cc(C#N)c3ccccc3c1O2` (centres unmarked) [Compound 17], in that order: 18 s, 606 and 1.4.
`CCC1(CC)c2cc(O)cnc2N(C)C12C=Nc1ccc3ncccc3c1O2` (centres unmarked) [Compound 5]: the t1/2 (half-value period of absorbance after irradiation) was found to be 16 s, the “λ max” value is 598 and the “ε (60 seconds)-ε (0 second)” value came out at 1.7.
The matching figures for `COc1ccc2c(c1)C1(CCCCC1)C1(C=Nc3ccc4cc5[nH]ccc5cc4c3O1)N2C` (centres unmarked) [Compound 19]: 17 s, 607 and 1.2.
The matching figures for `COC(=O)CN1c2ccc(N(C)C)cc2C2(CCCCC2)C12C=Nc1cc(Br)c3ccccc3c1O2` (centres unmarked) [Compound 11]: 17 s, 607 and 1.3.
For `CN1c2cc3occc3cc2C2(CC3CCC2C3)C12C=Nc1ccc3ccccc3c1O2` (centres unmarked) [Compound 8], in that order: 18 s, 603 and 1.4.
Take `Cc1cc2ccncc2c2c1N=CC1(O2)N(C(C)C)c2ccc(Cl)cc2C1(C)C` (centres unmarked) [Compound 55]: the t1/2 (half-value period of absorbance after irradiation) was 13 s, the “λ max” value came to 590 and the “ε (60 seconds)-ε (0 second)” value is 1.6.
For `N#Cc1cnc2ccc3c(c2c1)OC1(C=N3)N(CCc2ccccc2)c2ccccc2C12CCCCC2` (centres unmarked) [Compound 7], in that order: 18 s, 601 and 1.8.
Take `CC1(C)c2cc3cc(-c4ccsc4)oc3cc2N(CCC#N)C12C=Nc1c(N)cc3ncccc3c1O2` (centres unmarked) [Compound 50]: the “λ max” value came out at 605 and the “ε (60 seconds)-ε (0 second)” value stood at 1.5.
`CCC1(CC)c2ccc(N(C)C)cc2N(CCc2ccccc2)C12C=Nc1c(Cl)cc3cc(OC)ncc3c1O2` (centres unmarked) [Compound 32]: the t1/2 (half-value period of absorbance after irradiation) turned out to be 19 s, the “λ max” value was 590 and the “ε (60 seconds)-ε (0 second)” value was 1.7.
The matching figures for `CN(C)c1cc2c(c3cc4cc[nH]c4cc13)OC1(C=N2)N(C)c2ncc(Cc3ccccc3)cc2C1(C)C` (centres unmarked) [Compound 47]: 17 s, 601 and 1.4.
The matching figures for `CCCN1c2ccc(C(F)(F)F)cc2C2(C3CC4CC(C3)CC2C4)C12C=Nc1ccc3ccccc3c1O2` (centres unmarked) [Compound 4]: 18 s, 605 and 1.4.
For `COC(=O)CN1c2cc3ccc([N+](=O)[O-])cc3cc2C2(CC3CCC2C3)C12C=Nc1c(C(F)(F)F)cc3ncccc3c1O2` (centres unmarked) [Compound 14], in that order: 16 s, 606 and 1.4.
With `CN1c2ccccc2C2(CC3CCC2C3)C12C=Nc1ccc3cccnc3c1O2` (centres unmarked) [Compound 2], the t1/2 (half-value period of absorbance after irradiation) was 18 s, the “λ max” value stood at 603 and the “ε (60 seconds)-ε (0 second)” value was found to be 1.4.
For `COC(=O)c1cc2ncccc2c2c1N=CC1(O2)N(C)c2c(cc(C(F)(F)F)c(C(F)(F)F)c2C(F)(F)F)C1(C)C` (centres unmarked) [Compound 51], the t1/2 (half-value period of absorbance after irradiation) came out at 18 s, the “λ max” value stood at 609 and the “ε (60 seconds)-ε (0 second)” value turned out to be 1.4.
For `CN1c2cc(N3CCCC3)ccc2C(C)(C)C12C=Nc1c(C(F)(F)F)cc3ncccc3c1O2` (centres unmarked) [Compound 49], in that order: 19 s, 600 and 1.5.
